Experimental findings from US11254668B2, “Pyrazolo[1,5-A]pyrazin-4-yl and related derivatives” (Pfizer Inc., priority 2017, dated 2022) are described below.

Holding throughout (type): biochemical
The target in one test is TYK2 (Homo sapiens (Human), UniProt P29597). Nature of the test: JAK Caliper Enzyme Assay at 1 mM ATP, TYK2. Summed up:
(§1)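 Peptide phosphorylation by recombinant human kinase domain, 1 mM ATP, room temperature, EDTA-terminated, detected by microfluidic mobility shift; % effect normalised to DMSO baseline.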

For the next test, the target named is JAK1 (Homo sapiens (Human), UniProt P23458). The test can be described thus: JAK Caliper Enzyme Assay at 1 mM ATP, JAK1. In short, it runs like this:
(§2)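 Recombinant human kinase domains phosphorylate a fluorescent synthetic peptide at 1 mM ATP, room temperature, with enzyme and time tuned for 20-30% conversion; EDTA-stopped. Product/substrate separated by microfluidic mobility shift; percent effect versus DMSO and positive controls fitted to IC50 (nM).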

The target in another test is JAK2 (Homo sapiens (Human), UniProt O60674). Nature of the test: JAK Caliper Enzyme Assay at 1 mM ATP, JAK2. In short, it runs like this:
as §1

For another test, the target named is JAK3 (Homo sapiens (Human), UniProt P52333). The test can be described thus: JAK Caliper Enzyme Assay at 1 mM ATP, JAK3. In short, it runs like this:
as §2

pIC50: −log10 of the molar value.

Chain of JAK2 (O60674 849-1124): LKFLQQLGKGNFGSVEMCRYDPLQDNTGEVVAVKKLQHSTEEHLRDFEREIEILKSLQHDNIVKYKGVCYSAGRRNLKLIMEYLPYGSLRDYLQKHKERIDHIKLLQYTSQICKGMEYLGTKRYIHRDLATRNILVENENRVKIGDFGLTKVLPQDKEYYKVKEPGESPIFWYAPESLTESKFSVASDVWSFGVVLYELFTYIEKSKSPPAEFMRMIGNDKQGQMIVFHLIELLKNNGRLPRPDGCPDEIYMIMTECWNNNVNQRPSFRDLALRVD
Chain of TYK2 (P29597 897-1176): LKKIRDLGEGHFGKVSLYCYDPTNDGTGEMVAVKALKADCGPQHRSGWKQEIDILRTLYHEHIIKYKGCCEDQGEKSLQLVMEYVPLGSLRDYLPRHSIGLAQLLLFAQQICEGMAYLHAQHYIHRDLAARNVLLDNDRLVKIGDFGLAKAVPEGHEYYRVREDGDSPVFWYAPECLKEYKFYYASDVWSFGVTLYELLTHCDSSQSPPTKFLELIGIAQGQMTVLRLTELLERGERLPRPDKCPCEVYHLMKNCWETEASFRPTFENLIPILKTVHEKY
Chain of JAK3 (P52333 822-1111): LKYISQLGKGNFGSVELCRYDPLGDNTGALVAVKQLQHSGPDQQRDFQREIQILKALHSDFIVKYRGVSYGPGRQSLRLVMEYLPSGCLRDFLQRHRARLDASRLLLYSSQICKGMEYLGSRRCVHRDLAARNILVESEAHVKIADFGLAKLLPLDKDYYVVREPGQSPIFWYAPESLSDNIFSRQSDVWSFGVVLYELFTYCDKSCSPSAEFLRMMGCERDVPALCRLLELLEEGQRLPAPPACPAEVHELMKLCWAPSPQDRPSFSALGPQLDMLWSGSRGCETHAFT
Chain of JAK1 (P23458 875-1153): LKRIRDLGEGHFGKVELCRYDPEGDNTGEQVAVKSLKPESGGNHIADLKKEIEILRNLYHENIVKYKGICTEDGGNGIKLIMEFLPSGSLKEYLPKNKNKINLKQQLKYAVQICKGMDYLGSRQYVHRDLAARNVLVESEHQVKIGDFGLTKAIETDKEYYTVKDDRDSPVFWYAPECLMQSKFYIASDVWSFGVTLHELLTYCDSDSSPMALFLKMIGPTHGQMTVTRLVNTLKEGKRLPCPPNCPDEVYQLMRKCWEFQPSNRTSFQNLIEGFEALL

Usually pIC50 stands for −log10 of the IC50, conventionally taken in molar units. As for `Cn1ccc(-c2cc(-c3cnn([C@]4(CC#N)C[C@@H](C#N)C4)n3)c3cccnc3c2)n1` [Example 312, trans-3-(cyanomethyl)-3-{4-[7-(1-methyl-1H-pyrazol-3-yl)quinolin-5-yl]-2H-1,2,3-triazol-2-yl}cyclobutanecarbonitrile], the negative-log IC50 (pIC50) at TYK2 was 7.51; on JAK1, 5.79; at JAK2, 6.61; on JAK3, below 5.00.

For the compound `Cn1ccc(-c2cc(-c3cnn([C@]4(CC#N)C[C@H](C#N)C4)n3)c3cccnc3c2)n1` [Example 313, cis-3-(cyanomethyl)-3-{4-[7-(1-methyl-1H-pyrazol-3-yl)quinolin-5-yl]-2H-1,2,3-triazol-2-yl}cyclobutanecarbonitrile], the pIC50 on TYK2 is 7.60; at JAK1 it was 6.31; on JAK2 it was 7.10; on JAK3 it was 5.26.

In the case of `CS(=O)(=O)N1CC(CC#N)(n2ncc(-c3cc(-c4cn[nH]c4)cc4ncccc34)n2)C1` [Example 314, [1-(methylsulfonyl)-3-{4-[7-(1H-pyrazol-4-yl)quinolin-5-yl]-2H-1,2,3-triazol-2-yl}azetidin-3-yl]acetonitrile], the pIC50 is 7.49 on TYK2, 5.94 at JAK1, 6.41 on JAK2 and below 5.00 at JAK3.

For `N#CC[C@]1(n2ncc(-c3cc(-c4cn[nH]c4)cc4ncccc34)n2)C[C@@H](C#N)C1` [Example 316, cis-3-(cyanomethyl)-3-{4-[7-(1H-pyrazol-4-yl)quinolin-5-yl]-2H-1,2,3-triazol-2-yl}cyclobutanecarbonitrile], the pIC50 on TYK2 was 8.10; on JAK1 it was 6.91; on JAK2, 7.32; on JAK3 it was 5.56.

For `N#CC[C@]1(n2ncc(-c3cc(-c4c[nH]nc4CO)cc4ncccc34)n2)C[C@H](C#N)C1` [Example 317, trans-3-(cyanomethyl)-3-(4-{7-[3-(hydroxymethyl)-1H-pyrazol-4-yl]quinolin-5-yl}-2H-1,2,3-triazol-2-yl)cyclobutanecarbonitrile], the pIC50 is 7.24 at TYK2, 5.55 at JAK1, 6.08 at JAK2 and below 5.00 at JAK3.

Regarding `N#CC[C@]1(n2ncc(-c3cc(-c4c[nH]nc4CO)cc4ncccc34)n2)C[C@@H](C#N)C1` [Example 318, cis-3-(cyanomethyl)-3-(4-{7-[3-(hydroxymethyl)-1H-pyrazol-4-yl]quinolin-5-yl}-2H-1,2,3-triazol-2-yl)cyclobutanecarbonitrile], the negative logarithm of the IC50 (pIC50) at TYK2 was 7.77; at JAK1 it was 6.27; on JAK2, 6.86; on JAK3 it was 5.03.

Regarding `N#CC[C@]1(n2ncc(-c3cc(-c4cn[nH]c4N)cc4ncccc34)n2)C[C@H](C#N)C1` [Example 319, trans-3-{4-[7-(5-amino-1H-pyrazol-4-yl)quinolin-5-yl]-2H-1,2,3-triazol-2-yl}-3-(cyanomethyl)cyclobutanecarbonitrile], the pIC50 at TYK2 is 7.80; at JAK1 it was 5.90; at JAK2, 6.28; at JAK3 it was below 5.00.

Turning to `N#CC[C@]1(n2ncc(-c3cc(-c4cn[nH]c4N)cc4ncccc34)n2)C[C@@H](C#N)C1` [Example 320, cis-3-{4-[7-(5-amino-1H-pyrazol-4-yl)quinolin-5-yl]-2H-1,2,3-triazol-2-yl}-3-(cyanomethyl)cyclobutanecarbonitrile], the pIC50 is 8.30 at TYK2, 6.59 on JAK1, 7.11 at JAK2 and 5.10 at JAK3.

`C[C@]1(C#N)C[C@](CC#N)(n2ncc(-c3cc(-c4c[nH]nc4N)cc4ncccc34)n2)C1` [Example 321, trans-3-{4-[7-(3-amino-1H-pyrazol-4-yl)quinolin-5-yl]-2H-1,2,3-triazol-2-yl}-3-(cyanomethyl)-1-methylcyclobutanecarbonitrile]: the negative logarithm of the IC50 (pIC50) on TYK2 is 6.07; on JAK1, below 5.00; at JAK2 it was 5.11; on JAK3 it was below 5.00.

Regarding `C[C@]1(C#N)C[C@@](CC#N)(n2ncc(-c3cc(-c4cn[nH]c4N)cc4ncccc34)n2)C1` [Example 322, cis-3-{4-[7-(5-amino-1H-pyrazol-4-yl)quinolin-5-yl]-2H-1,2,3-triazol-2-yl}-3-(cyanomethyl)-1-methylcyclobutanecarbonitrile], the pIC50 on TYK2 is 7.13; on JAK1, 5.59; at JAK2, 6.02; at JAK3, below 5.00.

Consider `Cn1cc(-c2cc(-c3cnn(C4(CC#N)CN(S(C)(=O)=O)C4)n3)c3cccnc3c2)cn1` [Example 323, [3-{4-[7-(1-methyl-1H-pyrazol-4-yl)quinolin-5-yl]-2H-1,2,3-triazol-2-yl}-1-(methylsulfonyl)azetidin-3-yl]acetonitrile], for which the pIC50 is 7.16 at TYK2, 5.55 at JAK1, 6.61 at JAK2 and below 5.00 on JAK3.

For the compound `Cn1cc(-c2cc(-c3cnn([C@]4(CC#N)C[C@@H](C#N)C4)n3)c3cccnc3c2)cn1` [Example 324, trans-3-(cyanomethyl)-3-{4-[7-(1-methyl-1H-pyrazol-4-yl)quinolin-5-yl]-2H-1,2,3-triazol-2-yl}cyclobutanecarbonitrile], the pIC50 at TYK2 was 7.52; on JAK1, 5.85; at JAK2 it was 6.84; at JAK3, 5.00.

As for `Cn1cc(-c2cc(-c3cnn(C4(CC#N)CC(C#N)C4)n3)c3cccnc3c2)cn1` (stereo not drawn) [Example 325, cis-3-(cyanomethyl)-3-{4-[7-(1-methyl-1H-pyrazol-4-yl)quinolin-5-yl]-2H-1,2,3-triazol-2-yl}cyclobutanecarbonitrile], the pIC50 at TYK2 was 7.96; at JAK1 it was 6.50; on JAK2, 7.49; on JAK3, 5.67.

`N#CC[C@]1(n2ncc(-c3cc(-c4cnn(CCO)c4)cc4ncccc34)n2)C[C@H](C#N)C1` [Example 326, trans-3-(cyanomethyl)-3-(4-{7-[1-(2-hydroxyethyl)-1H-pyrazol-4-yl]quinolin-5-yl}-2H-1,2,3-triazol-2-yl)cyclobutanecarbonitrile]: the pIC50 at TYK2 was 8.05; on JAK1, 6.48; at JAK2, 7.35; at JAK3, 5.38.

Regarding `N#CC[C@]1(n2ncc(-c3cc(-c4cnn(CCO)c4)cc4ncccc34)n2)C[C@@H](C#N)C1` [Example 327, cis-3-(cyanomethyl)-3-(4-{7-[1-(2-hydroxyethyl)-1H-pyrazol-4-yl]quinolin-5-yl}-2H-1,2,3-triazol-2-yl)cyclobutanecarbonitrile], the pIC50 on TYK2 was 7.70; on JAK1, 6.58; on JAK2, 7.28; on JAK3, 5.48.

On to `Cn1cc(-c2cc(-c3cnn(C4(CC#N)CC(C#N)C4)n3)c3cccnc3c2)c(CO)n1` (stereo not drawn) [Example 329, trans-3-(cyanomethyl)-3-(4-{7-[3-(hydroxymethyl)-1-methyl-1H-pyrazol-4-yl]quinolin-5-yl}-2H-1,2,3-triazol-2-yl)cyclobutanecarbonitrile], for which the pIC50 is 7.15 on TYK2, 5.15 on JAK1, 6.18 at JAK2 and below 5.00 on JAK3.

On to `Cn1ncc(-c2cc(-c3cnn([C@]4(CC#N)C[C@@H](C#N)C4)n3)c3cccnc3c2)c1N` [Example 330, trans-3-{4-[7-(5-amino-1-methyl-1H-pyrazol-4-yl)quinolin-5-yl]-2H-1,2,3-triazol-2-yl}-3-(cyanomethyl)cyclobutanecarbonitrile], for which the negative-log IC50 (pIC50) on TYK2 is 6.84; on JAK1, 5.11; on JAK2, 5.79; at JAK3, below 5.00.

For the compound `Cn1ncc(-c2cc(-c3cnn([C@]4(CC#N)C[C@H](C#N)C4)n3)c3cccnc3c2)c1N` [Example 331, cis-3-{4-[7-(5-amino-1-methyl-1H-pyrazol-4-yl)quinolin-5-yl]-2H-1,2,3-triazol-2-yl}-3-(cyanomethyl)cyclobutanecarbonitrile], the pIC50 at TYK2 was 6.94; on JAK1, 5.43; on JAK2, 6.13; on JAK3, below 5.00.

As to `Cn1ncc(-c2cc(-c3cnn([C@]4(CC#N)C[C@@H](C#N)C4)n3)c3cccnc3c2)c1C(N)=O` [Example 334, 4-(5-{2-[cis-3-cyano-1-(cyanomethyl)cyclobutyl]-2H-1,2,3-triazol-4-yl}quinolin-7-yl)-1-methyl-1H-pyrazole-5-carboxamide], the negative logarithm of the IC50 (pIC50) on TYK2 was 6.13; at JAK1, below 5.00; at JAK2, 5.33; at JAK3, below 5.00.

As to `Cc1nc(-c2cc(-c3cnn([C@]4(CC#N)C[C@H](C#N)C4)n3)c3cccnc3c2)c[nH]1` [Example 336, cis-3-(cyanomethyl)-3-{4-[7-(2-methyl-1H-imidazol-4-yl)quinolin-5-yl]-2H-1,2,3-triazol-2-yl}cyclobutanecarbonitrile], the pIC50 was 8.10 at TYK2, 6.49 on JAK1, 7.49 at JAK2 and 5.45 at JAK3.

As for `Cc1nc(-c2cc(-c3cnn([C@]4(CC#N)C[C@@H](C#N)C4)n3)c3cccnc3c2)c[nH]1` [Example 337, trans-3-(cyanomethyl)-3-{4-[7-(2-methyl-1H-imidazol-4-yl)quinolin-5-yl]-2H-1,2,3-triazol-2-yl}cyclobutanecarbonitrile], the pIC50 was 7.48 on TYK2, 5.54 on JAK1, 6.61 on JAK2 and below 5.00 on JAK3.
